Assay results as given in patent US4398029A, “Quinoline carboxylic acid derivatives and process for the preparation” (Kyorin Seiyaku Kabushiki Kaisha, priority 1981, dated 1983).
In brackets after ≈: the same amount, converted by molar mass. Like-named read-outs stand apart in the source and are kept apart here.

How the values were obtained:
[1] = system: P. aeruginosa IFO 12689; assay: Antibacterial activity (MIC), standard agar dilution streak method; assay type: cell-based, Pseudomonas aeruginosa; details: Pseudomonas aeruginosa, IFO12689, P. aeruginosa IFO 12689; read-out: Minimum inhibitory concentration
Method: (§1) The antibacterial activities of the compounds of the present invention were assayed by the standard agar dilution streak method against Gram-positive and Gram-negative bacteria [Chemotherapy, 22, 1126 (1974)].

[2] = system: Shigella sonnei IID 969; assay: microbe, parasite or virus in culture; assay type: cell-based; details: Shigella sonnei, IID969, Shigella sonnei IID 969; read-out: Minimum inhibitory concentration
Method: as §1

[3] = system: E. coli ATCC 10536; assay: Antibacterial activity (MIC), standard agar dilution streak method; assay type: cell-based, Escherichia coli; details: for MIC: Escherichia coli, ATCC10536, read-out: Minimum inhibitory concentration
Method: as §1

[4] = system: S. aureus Terajima; assay: as above; assay type: cell-based, Staphylococcus aureus; details: Staphylococcus aureus; S. aureus Terajima; read-out: Minimum inhibitory concentration
Method: as §1

[5] = system: Salmonella enteritidis IID 604; assay: as above; assay type: cell-based; details: Salmonella enterica; Salmonella enteritidis IID 604; read-out: Minimum inhibitory concentration
Method: as §1

[6] = system: Klebsiella pneumoniae IFO 3512; assay: as above; assay type: cell-based; details: read-out: Minimum inhibitory concentration
Method: as §1

[7] = system: Staphylococcus aureus 209 p; assay: as above; assay type: cell-based; details: Staphylococcus aureus 209 p; for MIC: read-out: Minimum inhibitory concentration
Method: as §1

[8] = system: Yersinia enterocolitica IID 981; assay: as above; assay type: cell-based; details: read-out: Minimum inhibitory concentration
Method: as §1

[9] = system: Proteus vulgaris 3167; assay: as above; assay type: cell-based; details: read-out: Minimum inhibitory concentration
Method: as §1

[10] = system: P. morganii IID 602; assay: as above; assay type: cell-based; details: Morganella morganii, IID602, P. morganii IID 602; read-out: Minimum inhibitory concentration
Method: as §1

[11] = system: Citrobacter freundii IID 976; assay: as above; assay type: cell-based; details: read-out: Minimum inhibitory concentration
Method: as §1

[12] = system: Pseudomonas aeruginosa V-1; assay: as above; assay type: cell-based; details: read-out: Minimum inhibitory concentration
Method: as §1

[13] = system: Acinetobacter anitratus IID 876; assay: as above; assay type: cell-based; details: Acinetobacter calcoaceticus, IID876, read-out: Minimum inhibitory concentration
Method: as §1

[14] = system: Alcaligenes faecalis 0104002; assay: as above; assay type: cell-based; details: for MIC: read-out: Minimum inhibitory concentration
Method: as §1

[15] = system: Serratia marcescens IID 618; assay: as above; assay type: cell-based; details: for MIC: read-out: Minimum inhibitory concentration
Method: as §1

[16] = system: S. epidermidis IID 866; assay: as above; assay type: cell-based; details: Staphylococcus epidermidis, IID866, read-out: Minimum inhibitory concentration
Method: as §1

[17] = system: Escherichia coli NIHJ JC-2; assay: as above; assay type: cell-based; details: for MIC: read-out: Minimum inhibitory concentration
Method: as §1

[18] = system: Bacillus subtilis PCI 219; assay: as above; assay type: cell-based; details: PCI219; Bacillus subtilis PCI 219; read-out: Minimum inhibitory concentration
Method: as §1

[19] = system: Enterobacter cloacae IID 977; assay: as above; assay type: cell-based; details: read-out: Minimum inhibitory concentration
Method: as §1

[20] = system: P. mirabilis IID 994; assay: as above; assay type: cell-based; details: Proteus mirabilis, IID994; P. mirabilis IID 994; read-out: Minimum inhibitory concentration
Method: as §1

[21] = Klebsiella pneumoniae, IFO3512, Klebsiella pneumoniae IFO 3512
[22] = Yersinia enterocolitica, IID981, Yersinia enterocolitica IID 981
[23] = Proteus vulgaris, 3167, Proteus vulgaris 3167
[24] = Citrobacter freundii, IID976, Citrobacter freundii IID 976
[25] = Pseudomonas aeruginosa, V1, Pseudomonas aeruginosa V-1
[26] = IFO3512, Klebsiella pneumoniae IFO 3512
[27] = IID981, Yersinia enterocolitica IID 981
[28] = IID976, Citrobacter freundii IID 976
[29] = IID977, Enterobacter cloacae IID 977
[30] = IID618, Serratia marcescens IID 618
[31] = Alcaligenes faecalis, 0104002, Alcaligenes faecalis 0104002
[32] = Serratia marcescens, IID618, Serratia marcescens IID 618

Structure (SMILES)	MIC [1]	MIC [2]	MIC [4]	MIC [5]	MIC [6, 21]	MIC [8, 22]	MIC [9, 23]	MIC [10]	MIC [11, 24]	MIC [12, 25]	MIC [13]	MIC [16]	MIC [18]	MIC [3]	MIC [6, 26]	MIC [7]	MIC [8, 27]	MIC ([9]; Proteus vulgaris 3167)	MIC [11, 28]	MIC [19, 29]	other results
CCn1cc(C(=O)O)c(=O)c2cc(F)c(N3CCC(O)CC3)c(F)c21 [Example 9, 1-Ethyl-6,8-difluoro-1,4-dihydro-7-(4-hydroxy-1-piperidinyl)-4-oxoquinoline-3-carboxylic acid]	12.5 µg/mL (≈ 35.5 µM)	0.2 µg/mL (≈ 0.568 µM)	0.2 µg/mL (≈ 0.568 µM)	1.56 µg/mL (≈ 4.43 µM)	≤ 0.05 µg/mL	0.78 µg/mL (≈ 2.21 µM)	≤ 0.05 µg/mL	0.78 µg/mL (≈ 2.21 µM)	0.78 µg/mL (≈ 2.21 µM)	6.25 µg/mL (≈ 17.7 µM)	1.56 µg/mL (≈ 4.43 µM)	0.39 µg/mL (≈ 1.11 µM)	≤ 0.05 µg/mL	–	–	–	–	–	–	–	Minimum inhibitory concentration [3]: 0.20 µg/mL (≈ 0.568 µM); Minimum inhibitory concentration [7]: 0.20 µg/mL (≈ 0.568 µM); Minimum inhibitory concentration ([14]; Alcaligenes faecalis 0104002): 1.56 µg/mL (≈ 4.43 µM); Minimum inhibitory concentration ([15]; Serratia marcescens IID 618): 1.56 µg/mL (≈ 4.43 µM); Minimum inhibitory concentration ([17]; Escherichia coli NIHJ JC-2): 0.20 µg/mL (≈ 0.568 µM)
Cl.O=C(O)c1cn(CCO)c2c(F)c(N3CCNCC3)c(F)cc2c1=O [Example 14, 6,8-Difluoro-1,4-dihydro-1-(2-hydroxyethyl)-4-oxo-7-(1-piperazinyl)-quinoline-3-carboxylic acid hydrochloride]	12.5 µg/mL	0.2 µg/mL	25 µg/mL	0.39 µg/mL	–	–	–	–	–	–	25 µg/mL	12.5 µg/mL	3.13 µg/mL	0.39 µg/mL	0.39 µg/mL	12.5 µg/mL	0.39 µg/mL	0.39 µg/mL	0.2 µg/mL	0.39 µg/mL	MIC ([14]; Alcaligenes faecalis 0104002): 100 µg/mL; MIC [15, 30]: 6.25 µg/mL; MIC ([17]; NIHJJC2, Escherichia coli NIHJ JC-2): 0.39 µg/mL
CN1CCN(c2c(F)cc3c(=O)c(C(=O)O)cn(CCF)c3c2F)CC1.Cl [Example 5, 6,8-Difluoro-1-(2-fluoroethyl)-1,4-dihydro-7-(4-methyl-1-piperazinyl)-4-oxoquinoline-3-carboxylic acid hydrochloride]	3.13 µg/mL	≤ 0.05 µg/mL	0.78 µg/mL	–	≤ 0.05 µg/mL	0.1 µg/mL	≤ 0.05 µg/mL	0.1 µg/mL	≤ 0.05 µg/mL	–	0.39 µg/mL	0.78 µg/mL	0.1 µg/mL	0.1 µg/mL	–	0.78 µg/mL	–	–	–	–	MIC [20]: ≤ 0.05 µg/mL; MIC ([12]; V1, Pseudomonas aeruginosa V-1): 3.13 µg/mL; MIC [14, 31]: 0.78 µg/mL; MIC ([19]; Enterobacter cloacae, IID977, Enterobacter cloacae IID 977): 0.1 µg/mL; MIC [15, 32]: 0.1 µg/mL; MIC ([17]; Escherichia coli, NIHJJC2, Escherichia coli NIHJ JC-2): ≤ 0.05 µg/mL
CCn1cc(C(=O)O)c(=O)c2cc(F)c(N3CCCC(O)C3)c(F)c21 (stereo not drawn) [Example 10, 1-Ethyl-6,8-difluoro-1,4-dihydro-7-(3-hydroxy-1-piperidinyl)-4-oxoquinoline-3-carboxylic acid]	25 µg/mL (≈ 71 µM)	0.78 µg/mL (≈ 2.21 µM)	–	6.25 µg/mL (≈ 17.7 µM)	0.1 µg/mL (≈ 0.284 µM)	1.56 µg/mL (≈ 4.43 µM)	0.1 µg/mL (≈ 0.284 µM)	1.56 µg/mL (≈ 4.43 µM)	1.56 µg/mL (≈ 4.43 µM)	–	1.56 µg/mL (≈ 4.43 µM)	0.78 µg/mL (≈ 2.21 µM)	≤ 0.05 µg/mL	0.78 µg/mL (≈ 2.21 µM)	–	0.2 µg/mL (≈ 0.568 µM)	–	–	–	6.25 µg/mL (≈ 17.7 µM)	MIC ([12]; V1, Pseudomonas aeruginosa V-1): 25 µg/mL (≈ 71 µM); MIC [14, 31]: 3.13 µg/mL (≈ 8.88 µM); MIC [15, 32]: 3.13 µg/mL (≈ 8.88 µM)
C=CCn1cc(C(=O)O)c(=O)c2cc(F)c(N3CCNCC3)c(F)c21.Cl [Example 3, 1-Allyl-6,8-difluoro-1,4-dihydro-4-oxo-7-(1-piperazinyl)quinoline-3-carboxylic acid hydrochloride]	6.25 µg/mL	0.1 µg/mL	3.13 µg/mL	0.2 µg/mL	–	–	–	0.39 µg/mL	–	12.5 µg/mL	3.13 µg/mL	3.13 µg/mL	0.39 µg/mL	0.39 µg/mL	0.1 µg/mL	3.13 µg/mL	0.39 µg/mL	0.1 µg/mL	0.2 µg/mL	0.78 µg/mL	MIC [20]: 0.2 µg/mL; MIC ([14]; Alcaligenes faecalis 0104002): 3.13 µg/mL; MIC [15, 30]: 0.39 µg/mL
